Results taken from patent publication EP0908457B1, “3-(1,2-benzisothiazol- and isoxazol-5-Y1)-2,4(1H,3H)-pyrimidinedione or thione and 3-(1,2-benzisothiazol- and isoxazol-5-y1)-4(3H)-pyrimidinone or thione herbicidal agents” (BASF AKTIENGESELLSCHAFT, priority 1997, dated 1999).

How the values were obtained:
[1] = system: Cyperus iria; test: Preemergence weed control under flooded paddy conditions, CYPIR (Rice Flatsedge); type: in vivo; conditions: preemergence, flooded paddy; as to herbicidal effect rating, CYPIR: meaning of each grade not given here
[2] = system: Cyperus serotinus, Rottb.; test: Preemergence weed control under flooded paddy conditions, CYPSE (Flatsedge); type: in vivo; conditions: preemergence; as to herbicidal effect rating, CYPSE: meaning of each grade not given here
[3] = system: Oryza sativa, (L.) Tebonnet; test: Rice tolerance to post-transplant applications under flooded paddy conditions (Example 187), ORYSAT (Rice, Tebonnet); as to herbicidal effect rating ORYSAT: meaning of each grade not given here
[4] = system: Echinochloa oryzoides (Ard.) Fritsch.; test: Preemergence weed control under flooded paddy conditions, ECHORC (Watergrass (Calif.)); type: in vivo; conditions: preemergence, flooded paddy; as to herbicidal effect rating, ECHORC: meaning of each grade not given here
[5] = system: Sagittaria pygmaea, L.; test: Preemergence weed control under flooded paddy conditions, SAGPY (Arrowhead (Pygmaea)); type: in vivo; conditions: preemergence, flooded paddy; as to herbicidal effect rating, SAGPY: meaning of each grade not given here
[6] = system: Monochoria vaginalis, Presl.; test: Preemergence weed control under flooded paddy conditions, MOOVA (Monochoria); type: in vivo; conditions: preemergence, flooded paddy; as to herbicidal effect rating, MOOVA: meaning of each grade not given here
[7] = Rate 0.0320 kg/ha, rated three to four weeks after treatment
[8] = Rate 0.0620 kg/ha, rated three to four weeks after treatment
[9] = Rate 0.1250 kg/ha, rated three to four weeks after treatment
[10] = Rate 0.2500 kg/ha, rated three to four weeks after treatment
[11] = Rate 0.5000 kg/ha, rated three to four weeks after treatment
[12] = Rate 0.0320 kg/ha, rated 3-4 weeks after treatment
[13] = Rate 0.0620 kg/ha, rated 3-4 weeks after treatment
[14] = Rate 0.1250 kg/ha, rated 3-4 weeks after treatment
[15] = Rate 0.2500 kg/ha, rated 3-4 weeks after treatment
[16] = Rate 0.5000 kg/ha, rated 3-4 weeks after treatment

## Cn1c(C(F)(F)F)cc(=O)n(-c2ccc3snc(-c4ccc(OCC(=O)OC(C)(C)C)cc4)c3c2)c1=O [Example 273, Acetic acid, {p-{5-[3,6-dihydro-3-methyl-2,6-dioxo-4-(trifluoromethyl)-1(2H)-pyrimidinyl]-1,2-benzisothiazol-3-yl}phenoxy}-, tert-butyl ester]
[1]; [7]
  CYPIR herbicidal effect rating: 6.0
[1]; [8]
  CYPIR herbicidal effect rating: 9.0
[1]; [9]
  CYPIR herbicidal effect rating: 9.0
[1]; [10]
  CYPIR herbicidal effect rating: 9.0
[1]; [11]
  CYPIR herbicidal effect rating: 4.0
[2]; [7]
  CYPSE herbicidal effect rating: 0.0
[2]; [8]
  CYPSE herbicidal effect rating: 0.0
[2]; [10]
  CYPSE herbicidal effect rating: 7.0
[2]; [11]
  CYPSE herbicidal effect rating: 9.0
[3]; [7]
  ORYSAT herbicidal effect rating: 0.0
[3]; [8]
  ORYSAT herbicidal effect rating: 2.0
[3]; [9]
  ORYSAT herbicidal effect rating: 3.0
[3]; [10]
  ORYSAT herbicidal effect rating: 4.0
[3]; [11]
  ORYSAT herbicidal effect rating: 3.0
[4]; [7]
  ECHORC herbicidal effect rating: 3.9
[4]; [8]
  ECHORC herbicidal effect rating: 5.1
[4]; [9]
  ECHORC herbicidal effect rating: 6.0
[4]; [10]
  ECHORC herbicidal effect rating: 9.0
[4]; [11]
  ECHORC herbicidal effect rating: 9.0
[5]; [7]
  SAGPY herbicidal effect rating: 0.0
[5]; [8]
  SAGPY herbicidal effect rating: 0.0
[5]; [9]
  SAGPY herbicidal effect rating: 0.0
[5]; [10]
  SAGPY herbicidal effect rating: 6.0
[5]; [11]
  SAGPY herbicidal effect rating: 0.0
[6]; [7]
  MOOVA herbicidal effect rating: 9.0
[6]; [8]
  MOOVA herbicidal effect rating: 9.0
[6]; [9]
  MOOVA herbicidal effect rating: 9.0
[6]; [10]
  MOOVA herbicidal effect rating: 9.0
[6]; [11]
  MOOVA herbicidal effect rating: 9.0

## CCS(=O)(=O)NC(=O)COc1ccc(C)cc1-c1nsc2ccc(-n3c(=O)cc(C(F)(F)F)n(C)c3=O)cc12 [Example 554, Acetamide, 2-{{2-{5-[3,6-dihydro-3-methyl-2,6-dioxo-4-(trifluoromethyl)-1(2H)-pyrimidinyl)-1,2-benzisothiazol-3-yl}-p-tolyl}oxy}-N-(ethylsulfonyl)-]
[1]; [12]
  herbicidal effect rating, CYPIR: 2.0
[1]; [13]
  herbicidal effect rating, CYPIR: 7.0
[1]; [14]
  herbicidal effect rating, CYPIR: 9.0
[1]; [15]
  herbicidal effect rating, CYPIR: 9.0
[1]; [16]
  herbicidal effect rating, CYPIR: 5.0
[2]; [12]
  herbicidal effect rating, CYPSE: 0.0
[2]; [13]
  herbicidal effect rating, CYPSE: 0.0
[2]; [14]
  herbicidal effect rating, CYPSE: 4.0
[2]; [15]
  herbicidal effect rating, CYPSE: 9.0
[2]; [16]
  herbicidal effect rating, CYPSE: 9.0
[3]; [12]
  herbicidal effect rating ORYSAT: 4.0
[3]; [13]
  herbicidal effect rating ORYSAT: 4.0
[3]; [14]
  herbicidal effect rating ORYSAT: 6.0
[3]; [15]
  herbicidal effect rating ORYSAT: 7.0
[3]; [16]
  herbicidal effect rating ORYSAT: 6.0
[4]; [12]
  herbicidal effect rating, ECHORC: 3.0
[4]; [13]
  herbicidal effect rating, ECHORC: 4.1
[4]; [14]
  herbicidal effect rating, ECHORC: 5.7
[4]; [15]
  herbicidal effect rating, ECHORC: 9.0
[4]; [16]
  herbicidal effect rating, ECHORC: 7.0
[5]; [12]
  herbicidal effect rating, SAGPY: 0.0
[5]; [13]
  herbicidal effect rating, SAGPY: 0.0
[5]; [14]
  herbicidal effect rating, SAGPY: 0.0
[5]; [15]
  herbicidal effect rating, SAGPY: 9.0
[5]; [16]
  herbicidal effect rating, SAGPY: 0.0
[6]; [12]
  herbicidal effect rating, MOOVA: 9.0
[6]; [13]
  herbicidal effect rating, MOOVA: 9.0
[6]; [14]
  herbicidal effect rating, MOOVA: 9.0
[6]; [15]
  herbicidal effect rating, MOOVA: 9.0
[6]; [16]
  herbicidal effect rating, MOOVA: 9.0

## Cc1ccc(C=C(C#N)c2nsc3ccc(-n4c(=O)cc(C(F)(F)F)n(C)c4=O)cc23)cc1 [Example 597, 1,2-Benzisothiazole-3-acetonitrile, 5-[3,6-dihydro-3-methyl-2,6-dioxo-4-(trifluoromethyl)-1(2H)-pyrimidinyl]-alpha-(p-methylbenzylidene)-]
[1]; [7]
  herbicidal effect rating, CYPIR: 0.0
[1]; [8]
  herbicidal effect rating, CYPIR: 0.0
[1]; [9]
  herbicidal effect rating, CYPIR: 0.0
[1]; [10]
  herbicidal effect rating, CYPIR: 0.0
[2]; [7]
  herbicidal effect rating, CYPSE: 0.0
[2]; [8]
  herbicidal effect rating, CYPSE: 0.0
[2]; [9]
  herbicidal effect rating, CYPSE: 0.0
[2]; [10]
  herbicidal effect rating, CYPSE: 0.0
[3]; [7]
  herbicidal effect rating ORYSAT: 0.0
[3]; [8]
  herbicidal effect rating ORYSAT: 0.0
[3]; [9]
  herbicidal effect rating ORYSAT: 0.0
[3]; [10]
  herbicidal effect rating ORYSAT: 0.0
[4]; [7]
  herbicidal effect rating, ECHORC: 4.0
[4]; [8]
  herbicidal effect rating, ECHORC: 6.0
[4]; [9]
  herbicidal effect rating, ECHORC: 7.0
[4]; [10]
  herbicidal effect rating, ECHORC: 9.0
[5]; [7]
  herbicidal effect rating, SAGPY: 0.0
[5]; [8]
  herbicidal effect rating, SAGPY: 0.0
[5]; [9]
  herbicidal effect rating, SAGPY: 0.0
[5]; [10]
  herbicidal effect rating, SAGPY: 0.0
[6]; [8]
  herbicidal effect rating, MOOVA: 4.0
[6]; [10]
  herbicidal effect rating, MOOVA: 4.0
